# In patent US20230172914A1, “BIOMARKER-BASED THERAPEUTIC COMPOSITION” (WELLMARKER BIO CO., LTD., priority 2019, published 2023):
# Key:
# [1] = tested on: KM12C cell line tumor; experiment: Efficacy in animal model transplanted with KM12C, 30 and 50 mpk (Experimental Example 11); assay type: in vivo, BALB/c nude mice; conditions: once a day for 2 weeks
# Procedure: 5-Week-old female BALB/c nude mice were purchased and acclimatized for 1 week. Then, human-derived colon cancer cell line KM12C (1.5×10^6 cells/mice) was diluted in PBS, and injected subcutaneously (100 μl) into the right dorsal side of the mice. Comparative Examples 1 and Example 18 were orally administered when the tumor reached a size of about 100 mm^3. The drug was administered at 30 mpk and 50 mpk once a day for 2 weeks, and tumor size and body weight were measured twice a week. […] After completion of the drug administration, the experimental animals were euthanized, and then the tumors were extracted and weighed to perform comparative analysis.
# [2] = tested on: Colo320HSR cell line overexpressing RON mutants (mt #1: Δ160, mt #2: Δ155); experiment: Drug efficacy after overexpression of RON mutants in Colo320HSR (trypan blue, Western blotting); assay type: cell-based
# Procedure: Efficacy analysis for RON mutants was performed by overexpressing RON mutants, and then identifying cell death-inducing ability through Western blotting. Colo320HSR cell line was seeded onto a 100-mm plate, and then a RON mutant #1 (Δ160)- or RON mutant #2 (Δ155)-expressing vector was introduced into the cell line using a transfection solution (Polyplus). After 24 hours, the cell line was seeded onto a 60-mm plate at 2×10^5 cells. Then, after 24 hours, while performing medium exchange, the cells were subjected to treatment with Example 18 at respective concentrations (1 μM, 5 μM) for 48 hours.
# After 48 hours, the cells and cell suspensions were collected (1,500 rpm, 3 minutes), and live cells and dead cells were quantitated (n=2) through trypan blue exclusion assay. Subsequently, the remaining cells were collected and lysed by adding RIPA Lysis Buffer (T&I) to the respective cells for the purpose of identifying, with Western blotting, inhibitory capacity on active RON and cell death-inducing ability. Then, proteins were quantified by BCA kit (Pierce).
# Subsequently, the proteins were reacted with primary antibodies (active RON, cleaved caspase-3, beta actin), which were diluted 1:1,000 in 5% non-fat skim milk-TBST solution, at 4° C. for 24 hours or 48 hours. Then, washing with TBST was performed three times. The resultant was reacted with anti-rabbit and anti-mouse IgG conjugated horseradish peroxidase (HRP) secondary antibodies, which were diluted at 1:1,000, at room temperature for 2 hours. Then, washing with TBST was washed three times. Subsequently, the membrane was treated with the ECL solution (GE Healthcare), and developed by exposure to an X-ray film. Then, the bands were checked.
# [3] = tested on: KM12C (RONΔ160); experiment: MTS assay KM12C (Experimental Example 6); assay type: cell-based; conditions: Homo sapiens, 72 hours
# Procedure: In MTS assay for Example 18 and Comparative Example 1, KM12C cell line was seeded at 1,000 cells per well into 96-well plates. After 24 hours, the cells were treated with various concentrations (0.000001 uM to 10 uM) of Example 18 and Comparative Example 1 in 100 ul of 10% FBS-MEM medium (Welgene) per well. Subsequently, the cells were incubated for 72 hours. Then, 20 μl of MTS solution (Promega) was added thereto, and incubation was performed for 2 hours. Then, the absorbance was measured at 490 nm. The IC50 values for Example 18 and Comparative Example 1 were calculated using GraphPad Prism™ 5 to investigate cytotoxicity.
# [4] = RON mutant-transfected Colo320HSR
structure (smiles),measurement,setting,value
"CCOc1ccn(-c2ccc(F)cc2)c(=O)c1C(=O)Nc1ccc(Oc2ccnc3cc(-c4ccc(CN5CCOCC5)cn4)sc23)c(F)c1.Cl [Example 18, 4-ethoxy-N-[3-fluoro-4-({2-[5-(morpholinomethyl)pyridin-2-yl]thieno[3,2-b]pyridine-7-yl}oxy)phenyl]-1-(4-fluorophenyl)-2-oxo-1,2-dihydropyridine-3-carboxamide hydrochloride]",TGI (%),[1]; 30 mg/kg oral,82.4%
same,TGI (%),[1]; 50 mg/kg oral,84.8%
same,change in mouse body weight,[1]; 30 mpk and 50 mpk oral,little change in mouse body weight
same,tumor growth inhibition efficacy,[1]; 30 mpk and 50 mpk oral,very high tumor growth inhibition efficacy
same,cell death (trypan blue exclusion assay),"[2]; 1 μM, 5 μM, 48 hours, group transfected with RON mutant",cell death induction at the respective concentrations is observed
same,active RON expression level (Western blotting),[2]; [4],decreased expression level
same,cleaved caspase 3 expression level (Western blotting),[2]; [4],increased expression level
same,IC50,[3],6.9 nM
